Experimental findings from BindingDB's records for doi:10.1074/jbc.M112.419069 (John Innes Centre, 2013) are described below.

SMILES strings stand for the structures. Bounds are passed on as bounds.

Sequence of DNA gyrase subunit A (P9WG47 whole entry): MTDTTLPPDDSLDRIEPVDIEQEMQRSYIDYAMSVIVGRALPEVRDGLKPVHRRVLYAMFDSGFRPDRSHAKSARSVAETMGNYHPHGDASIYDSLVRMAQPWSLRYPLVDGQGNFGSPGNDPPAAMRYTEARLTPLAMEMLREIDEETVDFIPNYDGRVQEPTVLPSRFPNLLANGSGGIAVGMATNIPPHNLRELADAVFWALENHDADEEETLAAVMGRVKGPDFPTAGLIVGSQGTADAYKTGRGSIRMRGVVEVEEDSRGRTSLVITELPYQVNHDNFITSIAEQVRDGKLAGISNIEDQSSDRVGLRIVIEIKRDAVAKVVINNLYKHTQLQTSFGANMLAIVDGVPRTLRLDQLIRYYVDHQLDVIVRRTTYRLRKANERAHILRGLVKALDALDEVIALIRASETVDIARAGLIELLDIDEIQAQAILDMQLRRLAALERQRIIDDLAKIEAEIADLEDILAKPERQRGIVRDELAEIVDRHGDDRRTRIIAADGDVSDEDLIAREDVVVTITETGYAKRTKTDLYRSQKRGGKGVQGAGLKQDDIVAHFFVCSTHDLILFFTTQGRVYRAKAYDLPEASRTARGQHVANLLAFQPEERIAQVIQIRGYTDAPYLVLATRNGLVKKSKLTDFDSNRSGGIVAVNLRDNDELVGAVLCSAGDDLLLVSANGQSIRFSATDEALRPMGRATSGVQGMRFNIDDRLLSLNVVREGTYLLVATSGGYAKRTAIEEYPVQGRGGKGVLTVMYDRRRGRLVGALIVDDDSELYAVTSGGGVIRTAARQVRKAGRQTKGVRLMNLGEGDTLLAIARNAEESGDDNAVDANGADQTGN

For this assay, the target named is DNA gyrase subunit A (Mycobacterium tuberculosis (strain ATCC 25618 / H37Rv), UniProt P9WG47). As to the kind of experiment: Enzyme Assay. The procedure:
Mycobacterium tuberculosis gyrase supercoiling, relaxation, and decatenation assays were carried out as described previously.
Molecule `Cc1cc(O)c2c(c1)C(=O)C=CC2=O` [5-Hydroxy-7-methyl-[1,4]naphthoquinone] yielded an IC50 of 30 µM.
To `Cc1cc(O)c2c(c1)C(=O)C(c1c(C)cc3c(c1O)C(=O)C=CC3=O)=CC2=O` [Diospyrin] belongs 15 µM; to `Cc1cc2c(c(O)c1-c1c(C)cc(O)c3c1C(=O)C=CC3=O)C(=O)C=CC2=O` [Isodiospyrin], 100 µM.
For `Cc1cc(O)c2c(c1)C(=O)C=C(c1c(C)cc(O)c3c1C(=O)C=CC3=O)C2=O` [Neodiospyrin], the IC50 came to 50 µM.
As for `CC1=CC(=O)c2ccccc2C1=O` [Vitamin K3], the figure is over 200 µM.
